Ki data for 28 molecules are collected here from patent US10988459B2 (priority 2015, dated 2021).

Molecules are shown by their SMILES.

human RIP1 kinase domain (2-375), sequence (Q13546 2-375): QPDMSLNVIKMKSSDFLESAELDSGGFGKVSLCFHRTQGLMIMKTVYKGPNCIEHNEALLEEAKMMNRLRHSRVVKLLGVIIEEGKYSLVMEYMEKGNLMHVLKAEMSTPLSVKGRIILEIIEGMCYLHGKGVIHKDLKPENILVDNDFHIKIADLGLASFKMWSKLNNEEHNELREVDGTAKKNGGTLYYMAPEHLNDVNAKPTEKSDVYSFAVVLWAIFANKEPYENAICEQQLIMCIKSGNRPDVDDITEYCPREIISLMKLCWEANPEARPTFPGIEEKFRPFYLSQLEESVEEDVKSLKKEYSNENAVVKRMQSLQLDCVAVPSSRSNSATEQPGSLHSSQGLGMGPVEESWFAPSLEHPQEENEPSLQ

The test concerns the target human RIP1 kinase domain (2-375) (Homo sapiens (Human), UniProt Q13546). The test can be described thus: biochemical. The note with it: tight-binding apparent inhibition constant; human RIP1 kinase domain (2-375) 50 nM, 50 uM ATP, 2 hours; read-out: Ki. In kind it is biochemical. Put shortly:
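Ki^app comes from Morrison tight-binding fits of fractional activity versus compound concentration. Activity was read as ADP production, via tracer displacement lowering fluorescence polarization (633 nm laser). Conditions: 2 h, 50 nM insect-cell-expressed enzyme, 50 uM ATP, 30 mM MgCl2, 1 mM DTT, 0.5% DMSO, pH 7.5 Hepes.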
Take `CN1C(=O)[C@H](NC(=O)c2ncn(Cc3cc(F)ccc3F)n2)CCn2cncc21` [Example 507, 1-[(2,5-difluorophenyl)methyl]-N-[(3R)-1-methyl-2-oxo-4,5-dihydro-3H-imidazo[1,5-a][1,3]diazepin-3-yl]-1,2,4-triazole-3-carboxamide]: the Ki is 0.026 µM.

For `CN1C(=O)[C@@H](NC(=O)c2ncc3c(n2)C2(CCOC2)OC3)COc2ccccc21` (stereo partly drawn) [Example 508, N-[(3S)-5-methyl-4-oxo-2,3-dihydro-1,5-benzoxazepin-3-yl]spiro[5H-furo[3,4-d]pyrimidine-7,3′-tetrahydrofuran]-2-carboxamide], the Ki was 0.09 µM.

Turning to `CN1C(=O)[C@@H](NC(=O)c2nccc(C3(O)CCCC3)n2)COc2ccccc21` [Example 509, 4-(1-hydroxycyclopentyl)-N-[(3S)-5-methyl-4-oxo-2,3-dihydro-1,5-benzoxazepin-3-yl]pyrimidine-2-carboxamide], the Ki worked out at 0.44 µM.

For the molecule `CN1C(=O)[C@@H](NC(=O)c2ncc3c(n2)C2(CCOCC2)OC3)COc2ccccc21` [Example 510], the Ki was 0.33 µM.

In the case of `CN1C(=O)[C@@H](NC(=O)c2ncc3c(n2)C2(CCCOC2)OC3)COc2ccccc21` (stereo partly drawn) [Example 511, N-[(3S)-5-methyl-4-oxo-2,3-dihydro-1,5-benzoxazepin-3-yl]spiro[5H-furo[3,4-d]pyrimidine-7,3′-tetrahydropyran]-2-carboxamide], the Ki worked out at 0.083 µM.

For `Cc1cc2n(n1)CC[C@H](NC(=O)c1ncc3c(n1)C1(CCOCC1)OC3)C(=O)N2C` [Example 512, N-[(6S)-2,4-dimethyl-5-oxo-7,8-dihydro-6H-pyrazolo[1,5-a][1,3]diazepin-6-yl]spiro[5H-furo[3,4-d]pyrimidine-7,4′-tetrahydropyran]-2-carboxamide], the Ki was 0.84 µM.

On to `Cc1cc2n(n1)CC[C@H](NC(=O)c1nnc(Cc3cccc(F)c3F)[nH]1)C(=O)N2C` [Example 513, 5-[(2,3-difluorophenyl)methyl]-N-(6S)-2,4-dimethyl-5-oxo-7,8-dihydro-6H-pyrazolo[1,5-a][1,3]diazepin-6-yl-4H-1,2,4-triazole-3-carboxamide], for which the Ki is 0.029 µM.

In the case of `CN1C(=O)[C@@H](NC(=O)c2nnc(Cc3cccc(F)c3F)[nH]2)CCn2nc(C3CC3)cc21` [Example 514, 5-[(2,3-difluorophenyl)methyl]-N-(6 S)-2-cyclopropyl-4-methyl-5-oxo-7,8-dihydro-6H-pyrazolo[1,5-a][1,3]diazepin-6-yl-4H-1,2,4-triazole-3-carboxamide], the Ki turned out to be 0.017 µM.

For the molecule `CN1C(=O)[C@@H](NC(=O)c2nc3n(n2)CCOC3c2ccccc2)COc2ccccc21` (stereo partly drawn) [Example 515, 8-phenyl-N-[(3S)-5-methyl-4-oxo-2,3-dihydro-1,5-benzoxazepin-3-yl]-6,8-dihydro-5H-[1,2,4]triazolo[5,1-c][1,4]oxazine-2-carboxamide], the Ki was 0.029 µM.

As to `CN1C(=O)[C@@H](NC(=O)c2nc3n(n2)CCO[C@H]3c2ccccc2)COc2ccccc21` [Example 516, (8S)-8-phenyl-N-[(3S)-5-methyl-4-oxo-2,3-dihydro-1,5-benzoxazepin-3-yl]-6,8-dihydro-5H-[1,2,4]triazolo[5,1-c][1,4]oxazine-2-carboxamide], the Ki was found to be 0.018 µM.

Turning to `CN1C(=O)[C@@H](NC(=O)c2nc3n(n2)CCO[C@@H]3c2ccccc2)COc2ccccc21` [Example 517, (8R)-8-phenyl-N-[(3S)-5-methyl-4-oxo-2,3-dihydro-1,5-benzoxazepin-3-yl]-6,8-dihydro-5H-[1,2,4]triazolo[5,1-c][1,4]oxazine-2-carboxamide], the Ki is 0.66 µM.

With `Cc1cc2n(n1)CC[C@H](NC(=O)c1ncn(Cc3ccccc3F)n1)C(=O)N2C` [Example 518, 1-[(2-fluorophenyl)methyl]-N-(6S)-2,4-dimethyl-5-oxo-7,8-dihydro-6H-pyrazolo[1,5-a][1,3]diazepin-6-yl-1,2,4-triazole-3-carboxamide], the Ki worked out at 0.0075 µM.

For the molecule `Cc1cc2n(n1)CC[C@H](NC(=O)c1ncn(Cc3cccc(F)c3)n1)C(=O)N2C` [Example 519, 1-[(3-fluorophenyl)methyl]-N-(6S)-2,4-dimethyl-5-oxo-7,8-dihydro-6H-pyrazolo[1,5-a][1,3]diazepin-6-yl-1,2,4-triazole-3-carboxamide], the Ki is 0.011 µM.

On to `Cc1cc2n(n1)CC[C@H](NC(=O)c1ncn(Cc3ccccc3Cl)n1)C(=O)N2C` [Example 520, 1-[(2-chlorophenyl)methyl]-N-(6S)-2,4-dimethyl-5-oxo-7,8-dihydro-6H-pyrazolo[1,5-a][1,3]diazepin-6-yl-1,2,4-triazole-3-carboxamide], for which the Ki was determined as 0.006 µM.

Take `Cc1cc2n(n1)CC[C@H](NC(=O)c1ncn(Cc3cccc(Cl)c3)n1)C(=O)N2C` [Example 521, 1-[(3-chlorophenyl)methyl]-N-(6S)-2,4-dimethyl-5-oxo-7,8-dihydro-6H-pyrazolo[1,5-a][1,3]diazepin-6-yl-1,2,4-triazole-3-carboxamide]: the Ki was found to be 0.0069 µM.

Regarding `CN1C(=O)[C@@H](NC(=O)c2ncn(Cc3ccccc3Cl)n2)CCn2nc(C3CC3)cc21` [Example 522], the Ki came to 0.0035 µM.

As for `CN1C(=O)[C@@H](NC(=O)c2ncn(Cc3cccc(F)c3F)n2)CCn2nc(C(F)(F)F)cc21` [Example 523, 1-[(2,3-difluorophenyl)methyl]-N-(6S)-4-methyl-5-oxo-2-(trifluoromethyl)-7,8-dihydro-6H-pyrazolo[1,5-a][1,3]diazepin-6-yl-1,2,4-triazole-3-carboxamide], the Ki is 0.013 µM.

`CN1C(=O)[C@@H](NC(=O)c2nnc(Cc3cccc(F)c3F)[nH]2)CCn2nc(C(F)(F)F)cc21` [Example 524]: the Ki was 0.072 µM.

As for `CN1C(=O)[C@@H](NC(=O)c2ncn(Cc3ccc(F)cc3)n2)CCn2nc(C(F)(F)F)cc21` [Example 525], the Ki was 0.046 µM.

`CN1C(=O)[C@@H](NC(=O)c2ncn(Cc3ccccc3F)n2)CCn2nc(C(F)(F)F)cc21` [Example 526]: the Ki amounted to 0.02 µM.

Take `CN1C(=O)[C@@H](NC(=O)c2ncn(Cc3cccc(F)c3)n2)CCn2nc(C(F)(F)F)cc21` [Example 527]: the Ki came out at 0.023 µM.

With `CN1C(=O)[C@@H](NC(=O)c2ncn(Cc3ccccc3Cl)n2)CCn2nc(C(F)(F)F)cc21` [Example 528], the Ki was found to be 0.0048 µM.

For the molecule `CN1C(=O)[C@@H](NC(=O)c2ncn(Cc3ccc(F)cc3F)n2)CCn2nc(C(F)(F)F)cc21` [Example 529], the Ki was 0.028 µM.

As for `CN1C(=O)[C@@H](NC(=O)c2ncn(Cc3cccc(F)c3)n2)CCn2nc(C3CC3)cc21` [Example 531], the Ki worked out at 0.014 µM.

Take `CN1C(=O)[C@@H](NC(=O)c2ncn(Cc3ccc(Cl)cc3)n2)CCn2nc(C(F)(F)F)cc21` [Example 532]: the Ki was 0.024 µM.

For the molecule `CN1C(=O)[C@@H](NC(=O)c2ncn(Cc3cccc(Cl)c3)n2)CCn2nc(C(F)(F)F)cc21` [Example 533], the Ki was 0.045 µM.

On to `CN1C(=O)[C@@H](NC(=O)c2ncn(Cc3cccc(Cl)c3Cl)n2)CCn2nc(C(F)(F)F)cc21` [Example 534], for which the Ki was found to be 0.0076 µM.

For the molecule `Cc1cn2c(n1)N(C)C(=O)C(NC(=O)c1ncn(Cc3ccccc3)n1)CC2` (stereo not shown) [Example 535, 1-benzyl-N-(2,9-dimethyl-8-oxo-6,7,8,9-tetrahydro-5H-imidazo[1,2-a][1,3]diazepin-7-yl)-1H-1,2,4-triazole-3-carboxamide], the Ki came out at 0.13 µM.
